# Test results reported in ChEMBL document CHEMBL4014323, “Hydroxy-Substituted Heteroarylpiperazines: Novel Scaffolds for β-Arrestin-Biased D2R Agonists” (J Med Chem, 2017).
# Key:
# D(2) dopamine receptor [1] = target: T1, D(2) dopamine receptor (Homo sapiens, UniProt P14416); experiment: biochemical; type: cell-based
# Description: Displacement of [3H]spiperone from human D2LR expressed in CHO cell membranes by radioligand binding assay
# D(2) dopamine receptor [2] = target: T1, D(2) dopamine receptor; experiment: biochemical; type: cell-based; remark: listed apart in the source
# Description: Displacement of [3H]spiperone from human D2SR expressed in CHO cell membranes by radioligand binding assay
# D(4) dopamine receptor = target: T2, D(4) dopamine receptor (Homo sapiens, UniProt P21917); experiment: biochemical; type: cell-based
# T2 sequence (P21917 whole entry): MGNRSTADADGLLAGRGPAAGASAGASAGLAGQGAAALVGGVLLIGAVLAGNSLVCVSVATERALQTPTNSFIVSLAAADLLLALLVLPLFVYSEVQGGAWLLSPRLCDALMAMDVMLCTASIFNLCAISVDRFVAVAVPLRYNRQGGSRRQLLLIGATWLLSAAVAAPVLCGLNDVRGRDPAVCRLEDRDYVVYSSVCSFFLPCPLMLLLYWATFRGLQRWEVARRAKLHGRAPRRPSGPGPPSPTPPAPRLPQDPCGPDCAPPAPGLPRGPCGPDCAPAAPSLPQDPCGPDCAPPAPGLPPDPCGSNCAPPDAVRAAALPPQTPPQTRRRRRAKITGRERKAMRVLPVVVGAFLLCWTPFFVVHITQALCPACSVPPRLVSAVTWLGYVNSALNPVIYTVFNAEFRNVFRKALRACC
# Description: Displacement of [3H]spiperone from human D4R expressed in CHO cell membranes by radioligand binding assay
# D(2) dopamine receptor [3] = target: T1, D(2) dopamine receptor; type: cell-based, HEK-293T
# Description: Partial agonist activity at human D2SR expressed in HEK293T cells co-expressing (EA)beta-arrestin2 assessed as induction of beta-arrestin2 recruitment after 5 hrs by chemiluminescence assay
# HEK293 = experiment: Cytotoxicity against HEK293 cells; type: cell-based; conditions: human
# D(1A) dopamine receptor = D(1A) dopamine receptor (Homo sapiens, UniProt P21728); experiment: biochemical
# Sequence of D(1A) dopamine receptor (P21728 whole entry): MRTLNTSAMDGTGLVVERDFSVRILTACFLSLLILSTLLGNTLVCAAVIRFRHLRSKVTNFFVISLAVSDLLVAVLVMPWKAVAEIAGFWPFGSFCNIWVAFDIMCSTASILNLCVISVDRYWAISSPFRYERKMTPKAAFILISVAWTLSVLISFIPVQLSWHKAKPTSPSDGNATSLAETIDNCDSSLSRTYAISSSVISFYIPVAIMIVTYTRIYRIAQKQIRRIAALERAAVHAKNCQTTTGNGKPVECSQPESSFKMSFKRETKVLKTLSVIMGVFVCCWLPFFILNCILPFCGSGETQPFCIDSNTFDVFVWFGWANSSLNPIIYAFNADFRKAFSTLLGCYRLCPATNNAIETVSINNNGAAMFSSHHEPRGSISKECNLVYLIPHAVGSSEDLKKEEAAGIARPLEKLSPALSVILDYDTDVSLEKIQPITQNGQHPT
# Description: Displacement of [3H]SCH23390 from human D1R expressed in HEK293T cell membranes by radioligand binding assay
# D(1B) dopamine receptor = D(1B) dopamine receptor (Homo sapiens, UniProt P21918); experiment: biochemical
# Sequence of D(1B) dopamine receptor (P21918 whole entry): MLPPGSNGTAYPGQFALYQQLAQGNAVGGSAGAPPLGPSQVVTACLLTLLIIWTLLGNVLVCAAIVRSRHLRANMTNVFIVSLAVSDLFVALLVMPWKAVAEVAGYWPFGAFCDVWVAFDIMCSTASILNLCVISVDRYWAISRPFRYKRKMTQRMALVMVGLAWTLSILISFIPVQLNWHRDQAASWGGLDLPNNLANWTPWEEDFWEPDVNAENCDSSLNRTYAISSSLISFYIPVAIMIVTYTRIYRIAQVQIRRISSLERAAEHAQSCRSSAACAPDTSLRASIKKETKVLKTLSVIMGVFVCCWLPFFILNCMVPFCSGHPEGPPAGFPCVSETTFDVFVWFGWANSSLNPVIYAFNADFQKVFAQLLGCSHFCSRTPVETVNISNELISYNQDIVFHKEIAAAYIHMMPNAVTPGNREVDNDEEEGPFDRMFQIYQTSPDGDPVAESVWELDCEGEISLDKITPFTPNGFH
# Description: Displacement of [3H]SCH23390 from human D5R expressed in HEK293T cell membranes by radioligand binding assay
# [4] = target: 5-hydroxytryptamine receptor 2A (Homo sapiens, UniProt P28223); experiment: biochemical
# Sequence of 5-hydroxytryptamine receptor 2A (P28223 whole entry): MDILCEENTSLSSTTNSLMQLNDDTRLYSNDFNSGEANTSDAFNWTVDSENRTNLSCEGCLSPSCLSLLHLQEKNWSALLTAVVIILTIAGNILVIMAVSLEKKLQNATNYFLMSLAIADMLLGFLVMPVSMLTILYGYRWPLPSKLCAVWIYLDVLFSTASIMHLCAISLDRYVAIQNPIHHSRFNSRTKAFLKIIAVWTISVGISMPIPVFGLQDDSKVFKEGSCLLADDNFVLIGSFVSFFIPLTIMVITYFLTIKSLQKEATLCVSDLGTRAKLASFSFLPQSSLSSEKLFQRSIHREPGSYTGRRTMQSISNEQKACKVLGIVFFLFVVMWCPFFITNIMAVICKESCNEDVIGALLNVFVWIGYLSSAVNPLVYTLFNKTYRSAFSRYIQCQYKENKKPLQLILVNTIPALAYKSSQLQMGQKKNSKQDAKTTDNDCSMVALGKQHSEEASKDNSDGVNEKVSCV
# Description: Displacement of [3H]ketanserin from human 5-HT2AR expressed in HEK293T cell membranes by radioligand binding assay
# D(2) dopamine receptor [5] = target: T1, D(2) dopamine receptor; type: functional, cell-based, HEK-293T
# Description: Agonist activity at human D2S receptor expressed in HEK293T cell membranes coexpressing Galphao1 assessed as induction of nucleotide exchange preincubated for 30 mins followed by addition of [35S]GTPgammaS measured after 30 mins by [35S]GTPgammaS binding assay
# D(2) dopamine receptor [6] = target: T1, D(2) dopamine receptor; type: cell-based, HEK-293T; remark: listed apart in the source
# Description: Partial agonist activity at human D2SR expressed in HEK293T cells co-expressing (EA)beta-arrestin2 and GRK2 assessed as induction of beta-arrestin2 recruitment after 5 hrs by chemiluminescence assay
# [7] = Half life in Sprague-Dawley rat liver microsomes at 20 uM by HPLC analysis; type: ADME, microsome
# [8] = Intrinsic clearance in Sprague-Dawley rat liver microsomes assessed per mg protein at 20 uM by HPLC analysis; type: ADME, microsome; conditions: read-out: CLH
# [9] = Binding affinity to microsomal protein in Sprague-Dawley rat liver microsomes after 60 mins in presence of NADPH by HPLC analysis; type: ADME; conditions: read-out: PB (converted)
# [10] = Binding affinity to microsomal protein in Sprague-Dawley rat liver microsomes after 60 mins in absence of NADPH by HPLC analysis; type: ADME; conditions: 1 h
# [11] = target: T3, Voltage-gated inwardly rectifying potassium channel KCNH2 (Homo sapiens, UniProt Q12809); experiment: Inhibition of human ERG expressed in CHO cells assessed as reduction in tail current at 1 uM and -40 holding potential by automated patch-clamp assay; type: cell-based
# T3 sequence (Q12809 whole entry): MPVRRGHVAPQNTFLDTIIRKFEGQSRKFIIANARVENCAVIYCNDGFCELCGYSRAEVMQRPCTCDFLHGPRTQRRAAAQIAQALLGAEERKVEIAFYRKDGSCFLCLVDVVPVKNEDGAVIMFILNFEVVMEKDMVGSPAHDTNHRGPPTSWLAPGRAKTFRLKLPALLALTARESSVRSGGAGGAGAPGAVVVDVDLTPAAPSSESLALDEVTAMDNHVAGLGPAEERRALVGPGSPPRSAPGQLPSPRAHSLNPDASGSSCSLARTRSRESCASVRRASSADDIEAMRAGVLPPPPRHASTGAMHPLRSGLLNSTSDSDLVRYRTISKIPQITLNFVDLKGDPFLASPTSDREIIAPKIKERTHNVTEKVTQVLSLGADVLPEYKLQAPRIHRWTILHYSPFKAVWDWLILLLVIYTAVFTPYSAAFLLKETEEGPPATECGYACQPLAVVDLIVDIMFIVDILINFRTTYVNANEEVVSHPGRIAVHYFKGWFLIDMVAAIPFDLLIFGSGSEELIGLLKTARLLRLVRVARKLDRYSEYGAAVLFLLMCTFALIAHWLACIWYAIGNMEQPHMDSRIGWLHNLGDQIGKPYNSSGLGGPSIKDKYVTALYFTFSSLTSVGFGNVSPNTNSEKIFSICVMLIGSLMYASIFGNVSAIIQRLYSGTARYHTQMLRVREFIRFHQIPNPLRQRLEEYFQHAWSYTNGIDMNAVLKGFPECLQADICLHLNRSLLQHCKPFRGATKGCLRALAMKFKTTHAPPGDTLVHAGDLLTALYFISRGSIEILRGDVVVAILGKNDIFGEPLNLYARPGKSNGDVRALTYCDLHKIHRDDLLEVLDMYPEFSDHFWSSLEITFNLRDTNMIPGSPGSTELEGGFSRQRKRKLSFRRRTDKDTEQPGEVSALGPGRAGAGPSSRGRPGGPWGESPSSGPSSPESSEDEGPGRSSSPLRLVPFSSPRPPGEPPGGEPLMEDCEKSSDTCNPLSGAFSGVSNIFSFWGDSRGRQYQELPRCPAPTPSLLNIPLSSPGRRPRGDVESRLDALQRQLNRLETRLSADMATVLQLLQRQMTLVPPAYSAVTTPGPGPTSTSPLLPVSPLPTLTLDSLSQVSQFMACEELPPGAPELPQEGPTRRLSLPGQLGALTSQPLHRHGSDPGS
# hERG (KCNH2) [12] = target: T4, hERG (KCNH2) (Homo sapiens, UniProt Q12809); experiment: Inhibition of human ERG expressed in CHO cells assessed as tail current remaining at 10 uM and -40 holding potential by automated patch-clamp assay; type: cell-based; conditions: CHO cells expressing human ERG, read-out: Activity
# T4 sequence (Q12809 whole entry): as above
# hERG (KCNH2) [13] = target: T4, hERG (KCNH2); experiment: Inhibition of human ERG expressed in CHO cells assessed as tail current remaining at 50 uM and -40 holding potential by automated patch-clamp assay; type: cell-based; conditions: CHO cells expressing human ERG, read-out: Activity
# [14] = target: T3, Voltage-gated inwardly rectifying potassium channel KCNH2; experiment: Inhibition of human ERG expressed in CHO cells assessed as reduction in tail current at -40 holding potential by automated patch-clamp assay; type: cell-based
# D(2) dopamine receptor [15] = target: T1, D(2) dopamine receptor; conditions: HEK-293T, at 1e-07 to 100 µM
# Description: Agonist activity at human D2S receptor expressed in HEK293T cell membranes coexpressing Galphao1 assessed as induction of nucleotide exchange at 0.1 pM to 100 uM preincubated for 30 mins followed by addition of [35S]GTPgammaS measured after 30 mins by [35S]GTPgammaS binding assay relative to quinpirole
# Liver = experiment: Metabolic stability in Sprague-Dawley rat liver microsomes at 20 uM measured after 15 mins by HPLC-based mass-spectrometry; type: ADME, microsome; conditions: 0.25 h
# D(2) dopamine receptor [16] = target: T1, D(2) dopamine receptor; experiment: Agonist activity at human D2S receptor expressed in HEK293T cell membranes coexpressing Galphao1 assessed as induction of nucleotide exchange at 30 uM preincubated for 30 mins followed by addition of [35S]GTPgammaS measured after 30 mins by [35S]GTPgammaS binding assay relative to quinpirole; type: functional; conditions: HEK-293T
# T1 sequence (P14416 whole entry): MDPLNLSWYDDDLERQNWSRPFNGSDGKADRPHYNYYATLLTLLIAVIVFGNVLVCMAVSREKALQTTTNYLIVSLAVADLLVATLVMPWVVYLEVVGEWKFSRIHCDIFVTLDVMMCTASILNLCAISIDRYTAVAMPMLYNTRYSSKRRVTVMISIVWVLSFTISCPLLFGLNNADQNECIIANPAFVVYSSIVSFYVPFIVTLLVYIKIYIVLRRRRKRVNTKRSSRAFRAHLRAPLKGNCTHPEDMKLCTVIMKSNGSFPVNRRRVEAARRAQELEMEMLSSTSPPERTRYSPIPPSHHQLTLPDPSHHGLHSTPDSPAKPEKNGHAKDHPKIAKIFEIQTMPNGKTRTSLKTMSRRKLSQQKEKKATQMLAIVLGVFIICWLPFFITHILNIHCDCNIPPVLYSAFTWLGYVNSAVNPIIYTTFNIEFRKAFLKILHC
SMILES,Ki (D(2) dopamine receptor [1]) [nM],Ki (D(2) dopamine receptor [2]) [nM],Ki (D(4) dopamine receptor) [nM],EC50 (D(2) dopamine receptor [3]) [nM],Activity (HEK293),Ki (D(1A) dopamine receptor) [nM],Ki (D(1B) dopamine receptor) [nM],Ki [4] [nM],EC50 (D(2) dopamine receptor [5]) [nM],EC50 (D(2) dopamine receptor [6]) [nM],Emax (D(2) dopamine receptor [15]) [%],other results
O=C1COc2c(N3CCN(CCCCOc4ccn5nccc5c4)CC3)ccc(O)c2N1,2,0.86,4.8,62,Non-Toxic,2300,16000,1300,–,–,–,–
O=C1CCc2ccc(OCCCCN3CCCN(c4ccc(O)c5[nH]c(=O)ccc45)CC3)cc2N1,1.6,0.81,75,190,Non-Toxic,11000,> 20000,3400,67,200,55,half-life at 20 µM [7]: 130 min; microsomal CLint at 20 µM [8]: 11 µL/min/mg; fraction unbound at 1 h [9]: 0.73; PB [10]: Not Active; inhibition (INH) [11]: Not Active; activity at 10 µM (hERG (KCNH2) [12]): 71.7%; activity at 50 µM (hERG (KCNH2) [13]): 21.5%; IC50 [14]: 19700 nM; inhibition (INH) ([14]; human): Dose-dependent effect
O=c1ccc2c(N3CCCN(CCCCOc4ccn5nccc5c4)CC3)ccc(O)c2[nH]1,78,46,190,370,Non-Toxic,13000,> 20000,9000,90,250,56,Stability (Liver): Unstable; half-life at 20 µM [7]: 51 min; microsomal CLint at 20 µM [8]: 27 µL/min/mg; PB [10]: Not Active
O=C1CCc2ccc(OCCCCN3CCN(c4ccc(O)c5[nH]c(=O)ccc45)CC3)cc2N1,0.89,1,66,93,Non-Toxic,5400,9300,2200,–,–,–,–
CCCN[C@H]1CCc2nc(N)sc2C1,–,–,–,–,–,–,–,–,–,–,102,–
O=C1CCc2ccc(OCCCCN3CCN(c4ccc(O)c5c4OCCO5)CC3)cc2N1,2.9,2.2,300,–,Non-Toxic,4500,16000,160,–,–,–,–
O=C1CCc2ccc(OCCCCN3CCN(c4ccc(O)c5c4OCC(=O)N5)CC3)cc2N1,0.87,0.67,8.3,92,Non-Toxic,12000,4200,430,–,–,–,–
O=C1CCc2ccc(OCCCCN3CCCN(c4ccc(O)c5c4OCC(=O)N5)CC3)cc2N1,1.6,1.6,60,470,Non-Toxic,2700,15000,2000,78,630,26,–
O=C1CCc2ccc(OCCCCN3CCCN(c4ccc(O)c5oc(=O)ccc45)CC3)cc2N1,100,37,5000,220,Non-Toxic,> 20000,> 20000,2300,> 5000,130,–,Emax (D(2) dopamine receptor [16]): 36%
O=C1CCc2ccc(OCCCCN3CCN(c4ccc(O)c5ncccc45)CC3)cc2N1,3.4,1.5,94,–,Non-Toxic,1500,3400,39,–,–,–,–
O=c1ccc2c(N3CCN(CCCCOc4ccn5nccc5c4)CC3)ccc(O)c2[nH]1,–,–,31,–,Non-Toxic,4700,13000,3600,–,–,–,–
Oc1ccc(N2CCN(CCCCOc3ccn4nccc4c3)CC2)c2c1OCCO2,110,68,160,–,Non-Toxic,5300,19000,480,–,–,–,–
CCCCn1cc(CCCOc2ccc(C(=O)NCCCCN3CCCN(c4ccc(O)c5[nH]c(=O)ccc45)CC3)cc2OC)nn1,200,220,2100,1600,Non-Toxic,4000,> 20000,1500,–,–,–,–
O=C1CCc2ccc(OCCCCN3CCN(c4ccc(O)c5oc(=O)ccc45)CC3)cc2N1,4.8,2,870,–,Non-Toxic,> 20000,> 20000,> 20000,–,–,–,–
CCCN(CCc1cccs1)[C@H]1CCc2c(O)cccc2C1 [ROTIGOTINE],–,–,–,4.1,–,–,–,–,3.2,4.4,91,Stability (Liver): Unstable; half-life at 20 µM [7]: 5.8 min; microsomal CLint at 20 µM [8]: 240 µL/min/mg
Oc1ccc(N2CCN(CCCCOc3ccn4nccc4c3)CC2)c2cccnc12,33,25,55,–,Non-Toxic,1100,5800,200,–,–,–,–
O=c1ccc2c(N3CCN(CCCCOc4ccn5nccc5c4)CC3)ccc(O)c2o1,40,19,270,–,Non-Toxic,> 20000,> 20000,2800,–,–,–,–
CCCCn1cc(CCCOc2ccc(C(=O)NCCCN3CCCN(c4ccc(O)c5[nH]c(=O)ccc45)CC3)cc2OC)nn1,350,440,3200,680,Non-Toxic,17000,> 20000,4200,–,–,–,–
CCCN(CCC)CCc1cccc2c1CC(=O)N2 [ROPINIROLE],–,–,–,89,–,–,–,–,330,30,92,–
